According to US20240270741A1 (Cogent Biosciences, Inc., priority 2023, published 2024):

The compounds below were run against FGFR2 (Homo sapiens, UniProt P21802) (assay: FGFR wild type enzyme assay (HTRF KinEASE-TK), FGFR2). Conditions: Enz FGFR2 (nM), FGFR2 wild type enzyme.
FGFR2, sequence (P21802 399-821 limits assumed): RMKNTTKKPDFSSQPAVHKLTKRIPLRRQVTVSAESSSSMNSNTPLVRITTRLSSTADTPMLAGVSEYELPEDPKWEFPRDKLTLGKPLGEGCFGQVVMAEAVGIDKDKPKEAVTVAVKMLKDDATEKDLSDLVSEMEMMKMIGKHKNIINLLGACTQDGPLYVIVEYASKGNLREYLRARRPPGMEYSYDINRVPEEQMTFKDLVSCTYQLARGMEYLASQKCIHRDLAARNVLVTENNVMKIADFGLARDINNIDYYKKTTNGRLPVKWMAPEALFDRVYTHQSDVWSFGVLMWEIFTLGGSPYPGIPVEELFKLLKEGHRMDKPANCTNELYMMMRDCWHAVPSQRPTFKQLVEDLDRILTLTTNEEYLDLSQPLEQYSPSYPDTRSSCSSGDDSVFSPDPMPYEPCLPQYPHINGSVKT

`CC(=O)N1CCC[C@H](Cn2ncc(-c3cc(Sc4ncccc4F)c4c(C#N)cnn4c3)c2C)C1` [Example 207, (S)-6-(1-((1-acetylpiperidin-3-yl)methyl)-5-methyl-1H-pyrazol-4-yl)-4-((3-fluoropyridin-2-yl)thio)pyrazolo[1,5-a]pyridine-3-carbonitrile] and `CC(=O)N1CCO[C@H](Cn2ncc(-c3cc(Sc4ncccc4F)c4c(C#N)cnn4c3)c2C)C1` [Example 234, (S)-6-(1-((4-acetylmorpholin-2-yl)methyl)-5-methyl-1H-pyrazol-4-yl)-4-((3-fluoropyridin-2-yl)thio)pyrazolo[1,5-a]pyridine-3-carbonitrile] are the same in IC50: 5 nM for the first, 5 nM for the second.

`CN[C@H]1C[C@@H](n2ncc(-c3cc(Sc4ncccc4F)c4c(C#N)cnn4c3)c2C)C1` [Example 208, 4-((3-fluoropyridin-2-yl)thio)-6-(5-methyl-1-((1s,3s)-3-(methylamino)cyclobutyl)-1H-pyrazol-4-yl)pyrazolo[1,5-a]pyridine-3-carbonitrile] and `CNC1CC2(C1)CC(n1ncc(-c3cc(Sc4ncccc4F)c4c(C#N)cnn4c3)c1C)C2` (centres unmarked) [Example 211, 4-((3-fluoropyridin-2-yl)thio)-6-(5-methyl-1-(6-(methylamino)spiro[3.3]hep-tan-2-yl)-1H-pyrazol-4-yl)pyrazolo[1,5-a]pyridine-3-carbonitrile] are the same in IC50: 1 nM for the first, 1 nM for the second.

First: Cc1c(-c2cc(Sc3ncccc3F)c3c(C#N)cnn3c2)cnn1C1CC2(CNC2)C1 [Example 209, 4-((3-fluoropyridin-2-yl)thio)-6-(5-methyl-1-(2-azaspiro[3.3]heptan-6-yl)-1H-pyrazol-4-yl)pyrazolo[1,5-a]pyridine-3-carbonitrile]
Second: CC(=O)N1CC2(CC(n3ncc(-c4cc(Sc5ncccc5F)c5c(C#N)cnn5c4)c3C)C2)C1 [Example 210, 6-(1-(2-acetyl-2-azaspiro[3.3]heptan-6-yl)-5-methyl-1H-pyrazol-4-yl)-4-((3-fluoropyridin-2-yl)thio)pyrazolo[1,5-a]pyridine-3-carbonitrile]
The IC50 of the first is 2-fold lower: 1 nM for the first, 2 nM for the second. The first is the more potent here.

First: Cc1c(-c2cc(Sc3ncccc3F)c3c(C#N)cnn3c2)cnn1C[C@H]1CC[C@@H](O)CC1 [Example 212, 4-((3-fluoropyridin-2-yl)thio)-6-(1-(((1s,4s)-4-hydroxycyclohexyl)methyl)-5-methyl-1H-pyrazol-4-yl)pyrazolo[1,5-a]pyridine-3-carbonitrile]
Second: Cc1c(-c2cc(Sc3ncccc3F)c3c(C#N)cnn3c2)cnn1CC1CCNCC1 [Example 222, 4-((3-fluoropyridin-2-yl)thio)-6-(5-methyl-1-(piperidin-4-ylmethyl)-1H-pyrazol-4-yl)pyrazolo[1,5-a]pyridine-3-carbonitrile]
The IC50 of the first is 1.7-fold lower: 3 nM for the first, 5 nM for the second.

`Cc1c(-c2cc(Sc3ncccc3F)c3c(C#N)cnn3c2)cnn1C1CCN(C(=O)C(C)(C)N(C)C)CC1` [Example 213, 6-(1-(1-(2-(dimethylamino)-2-methylpropanoyl)piperidin-4-yl)-5-methyl-1H-pyrazol-4-yl)-4-((3-fluoropyridin-2-yl)thio)pyrazolo[1,5-a]pyridine-3-carbonitrile] and `Cc1c(-c2cc(Sc3ncccc3F)c3c(C#N)cnn3c2)cnn1C1CCN(C(=O)[C@@H](C)N(C)C)CC1` [Example 214, 6-(1-(1-(dimethyl-D-alanyl)piperidin-4-yl)-5-methyl-1H-pyrazol-4-yl)-4-((3-fluoropyridin-2-yl)thio)pyrazolo[1,5-a]pyridine-3-carbonitrile] are the same in IC50: 1.6 nM for the first, 1.6 nM for the second.

Going from `Cc1c(-c2cc(Sc3ncccc3F)c3c(C#N)cnn3c2)cnn1C1CCN(C(=O)[C@H](C)N(C)C)CC1` [Example 215, 6-(1-(1-(dimethyl-L-alanyl)piperidin-4-yl)-5-methyl-1H-pyrazol-4-yl)-4-((3-fluoropyridin-2-yl)thio)pyrazolo[1,5-a]pyridine-3-carbonitrile] to `CC(=O)N[C@H]1CC[C@@H](n2ncc(-c3cc(Sc4ncccc4F)c4c(C#N)cnn4c3)c2C)CC1` [Example 220, N-((1s,4S)-4-(4-(3-cyano-4-((3-fluoropyridin-2-yl)thio)pyrazolo[1,5-a]pyridin-6-yl)-5-methyl-1H-pyrazol-1-yl)cyclohexyl)acetamide], the IC50 rises from 1.6 nM to 5 nM (3.1-fold). The first is the more potent here.

First: Cc1c(-c2cc(Sc3ncccc3F)c3c(C#N)cnn3c2)cnn1C1CCN(Cc2ncccn2)CC1 [Example 216, 4-((3-fluoropyridin-2-yl)thio)-6-(5-methyl-1-(1-(pyrimidin-2-ylmethyl)piperidin-4-yl)-1H-pyrazol-4-yl)pyrazolo[1,5-a]pyridine-3-carbonitrile]
Second: Cc1c(-c2cc(Sc3ncccc3F)c3c(C#N)cnn3c2)cnn1[C@H]1CC[C@@H](NC(=O)CO)CC1 [Example 228, N-((1s,4s)-4-(4-(3-cyano-4-((3-fluoropyridin-2-yl)thio)pyrazolo[1,5-a]pyridin-6-yl)-5-methyl-1H-pyrazol-1-yl)cyclohexyl)-2-hydroxyacetamide]
The IC50 of the first is 2-fold higher: 2 nM for the first, 1 nM for the second. The second is the more potent here.

Going from `Cc1c(-c2cc(Sc3ncccc3F)c3c(C#N)cnn3c2)cnn1CC1CCN(CC(=O)N(C)C)CC1` [Example 217, 2-(4-((4-(3-cyano-4-((3-fluoropyridin-2-yl)thio)pyrazolo[1,5-a]pyridin-6-yl)-5-methyl-1H-pyrazol-1-yl)methyl)piperidin-1-yl)-N,N-dimethylacetamide] to `Cc1c(-c2cc(Sc3ncccc3F)c3c(C#N)cnn3c2)cnn1C[C@H]1[C@@H]2CCC[C@@H]21` [Example 235, 6-(1-(((1R,5S,6r)-bicyclo[3.1.0]hexan-6-yl)methyl)-5-methyl-1H-pyrazol-4-yl)-4-((3-fluoropyridin-2-yl)thio)pyrazolo[1,5-a]pyridine-3-carbonitrile], the IC50 falls from 6 nM to 4 nM (1.5-fold). The second is the more potent here.

Compared with `Cc1c(-c2cc(Sc3ncccc3F)c3c(C#N)cnn3c2)cnn1[C@H](C)C1CCNCC1` [Example 218, (R)-4-((3-fluoropyridin-2-yl)thio)-6-(5-methyl-1-(1-(piperidin-4-yl)ethyl)-1H-pyrazol-4-yl)pyrazolo[1,5-a]pyridine-3-carbonitrile], `Cc1c(-c2cc(Sc3ncccc3F)c3c(C#N)cnn3c2)cnn1[C@@H]1CCNC[C@H]1F` [Example 223] is 2.7-fold higher in IC50: 3 nM for the first, 8 nM for the second. The first is the more potent here.

Compared with `Cc1c(-c2cc(Sc3ncccc3F)c3c(C#N)cnn3c2)cnn1[C@H]1CC[C@]2(CCNC2)CC1` [Example 219, 4-((3-fluoropyridin-2-yl)thio)-6-(5-methyl-1-((5s,8s)-2-azaspiro[3.4]decan-8-yl)-1H-pyrazol-4-yl)pyrazolo[1,5-a]pyridine-3-carbonitrile], `CC(=O)N1CC[C@]2(CC[C@@H](n3ncc(-c4cc(Sc5ncccc5F)c5c(C#N)cnn5c4)c3C)CC2)C1` [Example 225, 6-(1-((5r,8r)-2-acetyl-2-azaspiro[4.5]decan-8-yl)-5-methyl-1H-pyrazol-4-y)-4-((3-fluoropyridin-2-yl)thio)pyrazolo[1,5-a]pyridine-3-carbonitrile] is 2-fold higher in IC50: 0.5 nM for the first, 1 nM for the second. The first is the more potent here.

Compared with `CC(=O)N1CCC(Cn2ncc(-c3cc(Sc4ccccc4C#N)c4c(C#N)cnn4c3)c2C)CC1` [Example 221, 6-(1-((1-acetylpiperidin-4-yl)methyl)-5-methyl-1H-pyrazol-4-yl)-4-((2-cyanophenyl)thio)pyrazolo [1,5-a]pyridin-3-carbonitrile], `CC(=O)N1CCC[C@@H](Cn2ncc(-c3cc(Sc4ccccc4C#N)c4c(C#N)cnn4c3)c2C)C1` [Example 224, (R)-6-(1-((1-acetylpiperidin-3-yl)methyl)-5-methyl-1H-pyrazol-4-yl)-4-((2-cyanophenyl)thio)pyrazolo [1,5-a]pyridine-3-carbonitrile] is 8-fold higher in IC50: 1 nM for the first, 8 nM for the second.

Going from `Cc1c(-c2cc(Sc3ncccc3F)c3c(C#N)cnn3c2)cnn1[C@@H]1C[C@H]2CNC[C@H]2C1` [Example 226, 4-((3-fluoropyridin-2-yl)thio)-6-(5-methyl-1-((3sR,5s,6aS)-octahydrocyclopenta[c]pyr-rol-5-yl)-1H-pyrazol-4-yl)pyrazolo[1,5-a]pyridine-3-carbonitrile] to `Cc1c(-c2cc(Sc3ncccc3F)c3c(C#N)cnn3c2)cnn1C[C@@H]1CNCCO1` [Example 233, (S)-4-((3-fluoropyridin-2-yl)thio)-6-(5-methyl-1-(morpholin-2-ylmethyl)-1H-pyrazol-4-yl)pyrazolo[1,5-a]pyridine-3-carbonitrile], the IC50 rises from 1 nM to 6 nM (6-fold). The first is the more potent here.

Going from `CC(=O)N1CC[C@]2(CC[C@H](n3ncc(-c4cc(Sc5ncccc5F)c5c(C#N)cnn5c4)c3C)CC2)C1` [Example 227, 6-(1-((5s,8s)-2-acetyl-2-azaspiro[4.5]decan-8-yl)-5-methyl-1H-pyrazol-4-yl)-4-((3-fluoropyridin-2-yl)thio)pyrazolo[1,5-a]pyridine-3-carbonitrile] to `Cc1c(-c2cc(Sc3ncc(F)cc3F)c3c(C#N)cnn3c2)cnn1[C@H]1CCCN(C(=O)CO)C1` [Example 229, (S)-4-((3,5-difluoropyridin-2-yl)thio)-6-(1-(1-(2-hydroxyacetyl)piperidin-3-yl)-5-methyl-1H-pyrazol-4-yl)pyrazolo[1,5-a]pyridine-3-carbonitrile], the IC50 rises from 1 nM to 3 nM (3-fold).

`Cc1c(-c2cc(Sc3ccc(F)cc3C#N)c3c(C#N)cnn3c2)cnn1C1CCN(C)CC1` [Example 230, 4-((2-cyano-4-fluorophenyl)thio)-6-(5-methyl-1-(1-methylpiperidin-4-yl)-1H-pyrazol-4-yl)pyrazolo[1,5-a]pyridine-3-carbonitrile] and `CC(=O)N(C)[C@H]1CC[C@@H](n2ncc(-c3cc(Sc4ccccc4C#N)c4c(C#N)cnn4c3)c2C)CC1` [Example 231, N-((1s,4s)-4-(4-(3-cyano-4-((2-cyanophenyl)thio)pyrazolo [1,5-a]pyridin-6-yl)-5-methyl-1H-pyrazol-1-yl)cyclohexyl)-N-methylacetamide] are the same in IC50: 1 nM for the first, 1 nM for the second.

With `Cc1c(-c2cc(Sc3ccccc3C#N)c3c(C#N)cnn3c2)cnn1C[C@@H]1CNCCO1` [Example 232, (S)-4-((2-cyanophenyl)thio)-6-(5-methyl-1-(morpholin-2-ylmethyl)-1H-pyrazol-4-yl)pyrazolo[1,5-a]pyridine-3-carbonitrile] the IC50 was 3.5 nM.
